One molecule from patent US20200290950A1, “ALKAMIDE COMPOUNDS AND USES THEREOF” (NORTH CAROLINA STATE UNIVERSITY, priority 2017, published 2020) can be followed below.

The test system of assay [1] is bone marrow derived mast cells (BMMCs). The assay can be described thus: β-hexosaminidase degranulation assay, BMMCs. Type of assay: cell-based. To be noted: Mus musculus, BMMC, A23187-stimulated BMMCs, 1 hr, read-out: maximum inhibition of release of β-hex. The method, then:
FIGS. 1A-1F. A15 inhibits BMMC and RBL-2H3 cell degranulation. The structure of alkamide A15 is shown with different functional groups and carbons in the fatty acid chain labeled (FIG. 1A). BMMCs were plated and stimulated 4 hrs later with 1 μM A23187 and the indicated concentrations of A15 or vehicle only. The percent degranulation was measured after 1 hr (FIG. 1B). RBL-2H3 cells were treated with A23187 and the percent degranulation was determined 1 hr later (FIG. 1C) or every 10 min over a 1 hr time course (FIG. 1D). RBL-2H3 cells were plated and incubated for 4 hrs before the media was aspirated and replaced with media containing 1 μg/mL IgE anti-DNP. Cells were incubated overnight and washed prior to stimulation. The percent degranulation from RBL-2H3 cells was calculated after stimulation with 50 ng/mL DNP-HSA in combination with the indicated concentrations of A15 or vehicle only after 1 hr (FIG. 1E). RBL-2H3 cells were stimulated for 1 hr in Tyrode's buffer before supernatants were collected and levels of histamine were measured using a competitive inhibition EIA kit (FIG. 1F). […]
RBL-2H3 cell and BMMC degranulation was measured using a β-hexosaminidase (β-hex) activity assay. […]

Another assay has as its system BMMCs. Put plainly: Toluidine blue staining of granules in BMMCs. Type of assay: cell-based, mouse. The method, then:
FIG. 2. A15 inhibits granule release from BMMCs. […] BMMCs were cytocentrifuged onto a glass slide, fixed, stained with toluidine blue (1%, pH<1) for 30 min, and washed before observing microscopically. Images were acquired at 400× magnification and are representative.

In a further assay the target is T1, TRPV1 (Mus musculus, UniProt Q704Y3).
T1 construct: The receptors TRPA1 and TRPV1 are expressed on neurons; from tissue; host or cells: primary dorsal root ganglion neurons from mice
T1 sequence (Q704Y3 whole entry): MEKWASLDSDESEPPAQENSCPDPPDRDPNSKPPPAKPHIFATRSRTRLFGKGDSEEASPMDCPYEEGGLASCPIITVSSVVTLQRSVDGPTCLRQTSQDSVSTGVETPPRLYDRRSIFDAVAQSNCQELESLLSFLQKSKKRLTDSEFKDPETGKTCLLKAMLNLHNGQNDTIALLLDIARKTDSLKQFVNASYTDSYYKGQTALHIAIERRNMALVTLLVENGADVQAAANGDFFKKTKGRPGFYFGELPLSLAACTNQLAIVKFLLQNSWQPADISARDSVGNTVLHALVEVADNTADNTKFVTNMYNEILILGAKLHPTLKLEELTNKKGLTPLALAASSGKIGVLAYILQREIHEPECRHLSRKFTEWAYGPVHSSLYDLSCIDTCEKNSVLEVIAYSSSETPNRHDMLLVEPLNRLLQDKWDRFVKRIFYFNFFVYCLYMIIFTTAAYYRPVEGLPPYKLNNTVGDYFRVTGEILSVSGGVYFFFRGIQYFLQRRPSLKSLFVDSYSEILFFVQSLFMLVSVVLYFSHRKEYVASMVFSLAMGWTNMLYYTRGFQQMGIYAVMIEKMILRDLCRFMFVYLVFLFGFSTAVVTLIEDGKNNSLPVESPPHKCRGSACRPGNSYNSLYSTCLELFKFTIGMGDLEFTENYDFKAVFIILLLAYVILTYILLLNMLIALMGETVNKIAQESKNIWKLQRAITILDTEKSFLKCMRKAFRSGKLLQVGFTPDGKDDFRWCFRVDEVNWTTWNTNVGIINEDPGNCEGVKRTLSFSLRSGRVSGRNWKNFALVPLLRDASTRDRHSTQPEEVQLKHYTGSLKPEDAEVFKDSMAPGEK
The assay can be described thus: Calcium response of DRG neurons to capsaicin. Type of assay: cell-based. To be noted: cultured DRG neurons, fluorescence microscopy. From the text:
FIG. 11. Calcium response from DRG sensory neurons to alkamide of transient receptors. Mustard a TRPA1-receptor agonist activates DRG neurons in gray (A) and capsaicin, an agonist for TRPV1-receptors in the DRG neurons in red (B). Ligand A15 inhibits both TRPA1 and TRPV1 receptors activation in orange; however, 85Y a synthetic ligand only reduces the inhibition of TRPA1 but not TRPV1 receptors in blue. Total number of neurons (n)=135-145; p≤0.05.
Several different model systems were utilized for these experiments. In one model, dorsal root ganglia were obtained from mice and the neurons cultured in vitro. The neurons were then stimulated in the presence/absence of A15 and YM8-85 and the calcium responses monitored by fluorescence microscopy. In the second model, the alkamides were applied to mouse skin in mineral oil. The reactions of these mice to heat, cold, and tactile stimulation was then compared with mice that had not received treatment with A15. […] Alkamides were applied to sensitized animals and then ear swelling and bouts of scratching were monitored.
In vitro DRG neuron responses. […] Neurons were stimulated with mustard (allyl isothiocyanate) (A) an agonist for the receptor TRPA-1 or capsaicin (B) an agonist for the receptor TRPV-1 and calcium responses were measured in individual neurons by fluorescence microscopy. […]

`CCCCCCC/C=C/C=C/C(=O)NCC(C)C` [A15, (2E,4E)-N-Isobutyldodeca-2,4-dienamide]: in assay [1], the inhibition at 100 µM was 83.5%. Also, in the assay on BMMCs (100 μM A15 alone, 30 min), the “toluidine blue staining, compound alone” value is “did not noticeably affect staining”. Besides, the “A23187-induced reduction of toluidine blue staining (granule release)” value in the assay on BMMCs (100 μM A15 with 1 μM A23187, 30 min) was “blocked”. Besides, on TRPV1, the “DRG neuron calcium response to capsaicin (TRPV1 agonist)” value is reported as “inhibited”.
